Source: the supplement of paper PMC11061612

Experiments:
Experiment in all cases: Bliss excess, mean over the matrix (fraction); higher = more synergy
[1] = test system: LC4-1 (B-Lymphoblastic Leukemia)
In short: (§1)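 Cell lines grown in DMEM/F12 or RPMI with 10% FBS were plated in 1536-well plates and held 24 hours at 37°C, 5% CO2 before 72 hours of exposure to two-drug dose matrices, with DMSO typically at 0.2%. CellTiter-Glo 2.0 luminescence gave viability, which was converted to inhibition. Vehicle wells were set to 0 and blank wells to 1. Combination Emax is the second-highest inhibition in the matrix, and Bliss excess is the observed combination effect minus the expected EA + EB − EA·EB, where EA and EB are the single-agent effects.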

[2] = test system: HSC-2 (Oral Cavity Carcinoma)
In short: as §1

[3] = test system: JHH-7 (Hepatocellular Carcinoma)
In short: as §1

[4] = test system: EW-13 (Ewing's Sarcoma)
In short: as §1

[5] = test system: HC-1 (Other Blood Carcinomas)
In short: as §1

[6] = test system: KYSE-50 (Esophageal Squamous Cell Carcinoma)
In short: as §1

[7] = test system: NH-12 (Neuroblastoma)
In short: as §1

[8] = test system: NB7 (Neuroblastoma)
In short: as §1

[9] = test system: H-EMC-SS (Chondrosarcoma)
In short: as §1

[10] = test system: BV-173 (Chronic Myelogenous Leukemia)
In short: as §1

[11] = test system: GI-1 (Glioblastoma)
In short: as §1

[12] = test system: MFE-319 (Endometrial Carcinoma)
In short: as §1

[13] = test system: NCI-H2405 (Lung Adenocarcinoma)
In short: as §1

[14] = test system: KLE (Endometrial Carcinoma)
In short: as §1

[15] = test system: KINGS-1 (Low Grade Glioma)
In short: as §1

[16] = test system: KYSE-150 (Esophageal Squamous Cell Carcinoma)
In short: as §1

[17] = test system: EMC-BAC-2 (Non-Small Cell Lung Carcinoma)
In short: as §1

[18] = test system: PF-382 (T-Lymphoblastic Leukemia)
In short: as §1

[19] = test system: ASH-3 (Thyroid Gland Carcinoma)
In short: as §1

[20] = test system: NCI-H513 (Other Solid Carcinomas)
In short: as §1

Row | SMILES | Bliss excess [1] | Bliss excess [2] | Bliss excess [3] | Bliss excess [4] | Bliss excess [5] | Bliss excess [6] | Bliss excess [7] | Bliss excess [8] | Bliss excess [9] | Bliss excess [10] | Bliss excess [11] | Bliss excess [12] | Bliss excess [13] | Bliss excess [14] | Bliss excess [15] | Bliss excess [16] | Bliss excess [17] | Bliss excess [18] | Bliss excess [19] | Bliss excess [20]
1 | COc1nnc2ccc(N3CCC(c4ccc(OCCN5CCN(C)C(=O)[C@H]5C)cc4)CC3)nn12 [AZD5153] + C[C@@H]1COCCN1C2=NC(=NC(=C2)C3(CC3)[S@](=N)(=O)C)C4=C5C=CNC5=NC=C4 [AZD6738] (first compound max 1 µM, 7x7, partner max 10 µM) | -0.0721 | -0.0039 | 0.04 | 0.0682 | -0.0468 | 0.0172 | -0.0381 | -0.0111 | -0.0001 | -0.0506 | 0.0053 | -0.0852 | 0.0638 | -0.0287 | -0.0124 | -0.0482 | 0.0722 | 0.0239 | -0.025 | 0.0117
2 | COc1nnc2ccc(N3CCC(c4ccc(OCCN5CCN(C)C(=O)[C@H]5C)cc4)CC3)nn12 [AZD5153] + Cc1c2c(nn1C)CSCc1cc(n(C)n1)CSc1cc(c3ccccc3c1)OCCCc1c(C(=O)O)n(C)c3c-2c(Cl)ccc13 [AZD5991] (first compound max 1 µM, 7x7, partner max 1 µM) | -0.0736 | -0.0731 | -0.0306 | -0.0502 | 0.0424 | 0.0144 | -0.0206 | 0.0105 | -0.0212 | 0.0184 | 0.0022 | -0.0227 | 0.01 | -0.0228 | -0.0146 | -0.0732 | -0.0589 | 0.0145 | -0.114 | -0.0287
3 | COc1nnc2ccc(N3CCC(c4ccc(OCCN5CCN(C)C(=O)[C@H]5C)cc4)CC3)nn12 [AZD5153] + Cn1cnc2c(F)c(Nc3ccc(Br)cc3Cl)c(C(=O)NOCCO)cc21 [Selumetinib] (first compound max 1 µM, 7x7, partner max 10 µM) | 0.012 | 0.045 | -0.0274 | -0.0577 | -0.105 | 0.0571 | -0.0476 | -0.0011 | 0.0176 | -0.0503 | 0.0286 | -0.0265 | -0.0297 | -0.0636 | -0.029 | 0.0195 | -0.0101 | 0.0686 | -0.0338 | -0.051
4 | Cc1c2c(nn1C)CSCc1cc(n(C)n1)CSc1cc(c3ccccc3c1)OCCCc1c(C(=O)O)n(C)c3c-2c(Cl)ccc13 [AZD5991] + C1CN(CCC1(C(=O)N[C@@H](CCO)C2=CC=C(C=C2)Cl)N)C3=NC=NC4=C3C=CN4 [Capivasertib] (first compound max 1 µM, 7x7, partner max 3 µM) | 0.0364 | 0.138 | -0.0118 | 0.0256 | -0.0475 | -0.0036 | 0.0395 | -0.0133 | -0.0227 | -0.0621 | 0.045 | 0.111 | -0.0402 | -0.01 | -0.0468 | 0.039 | 0.0302 | -0.0203 | -0.0769 | -0.0056
5 | Cc1c2c(nn1C)CSCc1cc(n(C)n1)CSc1cc(c3ccccc3c1)OCCCc1c(C(=O)O)n(C)c3c-2c(Cl)ccc13 [AZD5991] + C=CCn1c(=O)c2cnc(Nc3ccc(N4CCN(C)CC4)cc3)nc2n1-c1cccc(C(C)(C)O)n1 [AZD1775] (first compound max 1 µM, partner max 1 µM) | 0.0301 | -0.0132 | 0.0348 | -0.0441 | 0.0432 | -0.0042 | -0.0549 | -0.0084 | 0.0071 | -0.072 | -0.0109 | 0.0074 | 0.0385 | -0.0616 | -0.0037 | 0.0496 | -0.0121 | -0.0314 | -0.0243 | -0.003
6 | Cc1c2c(nn1C)CSCc1cc(n(C)n1)CSc1cc(c3ccccc3c1)OCCCc1c(C(=O)O)n(C)c3c-2c(Cl)ccc13 [AZD5991] + CN(C)CCCOc1ccc(-c2ccc3ncc4c(c3c2)n(C2CCOCC2)c(=O)n4C)cn1 [AZD0156] (first compound max 1 µM, 7x7, partner max 1 µM) | -0.0177 | -0.0089 | -0.0091 | -0.0024 | -0.0479 | -0.0031 | -0.0511 | -0.0178 | -0.0106 | -0.114 | 0.0067 | 0.0347 | -0.0075 | -0.0504 | 0.0128 | -0.0143 | -0.0313 | 0.0109 | -0.0253 | -0.004
7 | Cc1c2c(nn1C)CSCc1cc(n(C)n1)CSc1cc(c3ccccc3c1)OCCCc1c(C(=O)O)n(C)c3c-2c(Cl)ccc13 [AZD5991] + C[C@@H]1COCCN1C2=NC(=NC(=C2)C3(CC3)[S@](=N)(=O)C)C4=C5C=CNC5=NC=C4 [AZD6738] (first compound max 1 µM, 7x7, partner max 10 µM) | 0.0101 | -0.0459 | 0.0642 | -0.0056 | 0.0639 | -0.0348 | 0.0031 | 0.028 | 0.0187 | -0.0537 | -0.0238 | 0.05 | 0.0105 | -0.0021 | 0.0151 | 0.0556 | 0.066 | 0.063 | 0.0554 | 0.0278
8 | Cc1c2c(nn1C)CSCc1cc(n(C)n1)CSc1cc(c3ccccc3c1)OCCCc1c(C(=O)O)n(C)c3c-2c(Cl)ccc13 [AZD5991] + C[C@@H](Nc1cc(F)cc(F)c1)c1cc(C(=O)N(C)C)cc2c(=O)cc(N3CCOCC3)oc12 [AZD8186] (first compound max 1 µM, 7x7, partner max 3 µM) | -0.057 | 0.0042 | -0.0439 | -0.0535 | 0.0381 | 0.0319 | 0.0311 | 0.0187 | -0.0325 | -0.0917 | 0.0556 | 0.0209 | -0.0114 | 0.0077 | -0.0111 | -0.0127 | -0.0336 | 0.005 | 0.0027 | 0.0221
9 | Cc1c2c(nn1C)CSCc1cc(n(C)n1)CSc1cc(c3ccccc3c1)OCCCc1c(C(=O)O)n(C)c3c-2c(Cl)ccc13 [AZD5991] + Cn1cnc2c(F)c(Nc3ccc(Br)cc3Cl)c(C(=O)NOCCO)cc21 [Selumetinib] (first compound max 1 µM, 7x7, partner max 3 µM) | 0.0467 | -0.0024 | -0.0649 | 0.0215 | 0.0827 | -0.0049 | 0.0026 | -0.0259 | -0.017 | 0.0265 | -0.0491 | -0.0233 | 0.0595 | -0.0374 | -0.0147 | 0.0402 | 0.0081 | 0.0006 | 0.0175 | -0.0255
10 | C[C@@H]1COCCN1c1cc(C2([S@](C)(=N)=O)CC2)nc(-c2ccnc3[nH]ccc23)n1 [AZD6738] + O=C(c1cc(Cc2n[nH]c(=O)c3ccccc23)ccc1F)N1CCN(C(=O)C2CC2)CC1 [Olaparib] (first compound max 10 µM, 7x7, partner max 10 µM) | -0.009 | 0.0825 | 0.0012 | -0.0574 | -0.0238 | -0.0202 | -0.0308 | 0.0202 | -0.0558 | -0.0099 | 0.0039 | -0.0089 | 0.0132 | -0.0307 | 0.0032 | 0.0376 | -0.007 | -0.0167 | 0.0361 | 0.0157
11 | Cc1cc2ncnn2cc1Nc1ncc2c(n1)n(C1CCOCC1)c(=O)n2C [AZD7648] + C=CCn1c(=O)c2cnc(Nc3ccc(N4CCN(C)CC4)cc3)nc2n1-c1cccc(C(C)(C)O)n1 [AZD1775] (first compound max 10 µM, partner max 1 µM) | -0.001 | 0.0566 | -0.0337 | 0.0225 | -0.106 | 0.0011 | 0.0005 | -0.011 | -0.028 | 0.0237 | 0.0071 | -0.0055 | -0.0064 | 0.0159 | -0.0041 | 0.0333 | 0.0058 | -0.0029 | -0.0006 | 0.0054
12 | Cc1cc2ncnn2cc1Nc1ncc2c(n1)n(C1CCOCC1)c(=O)n2C [AZD7648] + CCN(CCO)CCCOc1ccc2c(Nc3cc(CC(=O)Nc4cccc(F)c4)[nH]n3)ncnc2c1 [AZD2811] (first compound max 10 µM, 7x7, partner max 1 µM) | -0.114 | 0.0999 | -0.0244 | 0.0259 | 0.0045 | 0.0784 | -0.001 | 0.0415 | -0.0452 | -0.025 | 0.043 | 0.0419 | -0.015 | -0.0193 | 0.0339 | 0.003 | 0.0514 | 0.0137 | 0.0309 | -0.021
13 | Cc1cc2ncnn2cc1Nc1ncc2c(n1)n(C1CCOCC1)c(=O)n2C [AZD7648] + CN(C)CCCOc1ccc(-c2ccc3ncc4c(c3c2)n(C2CCOCC2)c(=O)n4C)cn1 [AZD0156] (first compound max 10 µM, 7x7, partner max 1 µM) | 0.0127 | 0.0203 | -0.0152 | -0.0385 | -0.0398 | 0.0078 | -0.0153 | 0.0303 | -0.0396 | 0.0151 | 0.0472 | 0.0572 | -0.0074 | 0.0175 | 0.0089 | 0.0054 | 0.0137 | 0.0685 | 0.0116 | -0.0145
14 | Cc1cc2ncnn2cc1Nc1ncc2c(n1)n(C1CCOCC1)c(=O)n2C [AZD7648] + C[C@@H]1COCCN1C2=NC(=NC(=C2)C3(CC3)[S@](=N)(=O)C)C4=C5C=CNC5=NC=C4 [AZD6738] (first compound max 10 µM, 7x7, partner max 10 µM) | 0.0469 | 0.0627 | 0.0247 | 0.0039 | -0.131 | -0.0089 | -0.0035 | 0.0143 | 0.0095 | -0.0194 | 0.018 | 0.0546 | 0.0068 | -0.0639 | 0.0412 | -0.0061 | 0.0575 | 0.0263 | 0.0459 | -0.0383
15 | Cc1cc2ncnn2cc1Nc1ncc2c(n1)n(C1CCOCC1)c(=O)n2C [AZD7648] + O=C(c1cc(Cc2n[nH]c(=O)c3ccccc23)ccc1F)N1CCN(C(=O)C2CC2)CC1 [Olaparib] (first compound max 10 µM, 7x7, partner max 10 µM) | -0.0517 | -0.0277 | -0.0356 | -0.0427 | -0.0389 | -0.0246 | 0.0165 | -0.0291 | -0.0759 | -0.0062 | -0.0013 | -0.0499 | -0.0277 | -0.013 | -0.0561 | -0.0351 | -0.0399 | 0.0443 | 0.0057 | -0.0002
